{
  "source": "the supplement of paper PMC10307832",
  "test_in_all_cases": "relative viability (nuclei count vs DMSO), 5 days (fraction); higher = more cells survive",
  "key": {"A-427": {"test_system": "A-427", "in_short": "(§1)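 Lung cancer cell lines in 1536-well plates were dosed by pin tool the day after seeding, either with one drug alone or with a fixed anchor-drug dose plus five library-drug doses (not always all listed) in √10 steps. After 5 days, cells were fixed and their nuclei stained in one step (final 0.05% Triton X-100, 1% formaldehyde, 1 ug/ml Hoechst), then counted on 4× images. Relative viability is the nuclei count in treated wells divided by that in vehicle wells. Values are medians of duplicate plates.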"}, "ABC-1": {"test_system": "ABC-1", "in_short": "as §1"}, "COR-L23": {"test_system": "COR-L23", "in_short": "as §1"}, "EMC-BAC-2": {"test_system": "EMC-BAC-2", "in_short": "as §1"}, "HARA": {"test_system": "HARA", "in_short": "as §1"}, "HOP-62": {"test_system": "HOP-62", "in_short": "as §1"}, "LK-2": {"test_system": "LK-2", "in_short": "as §1"}, "LXF-289": {"test_system": "LXF-289", "in_short": "as §1"}, "NCI-H1792": {"test_system": "NCI-H1792", "in_short": "as §1"}, "NCI-H1793": {"test_system": "NCI-H1793", "in_short": "as §1"}, "NCI-H1944": {"test_system": "NCI-H1944", "in_short": "as §1"}, "NCI-H1993": {"test_system": "NCI-H1993", "in_short": "as §1"}, "NCI-H2009": {"test_system": "NCI-H2009", "in_short": "as §1"}, "NCI-H2228": {"test_system": "NCI-H2228", "in_short": "as §1"}, "NCI-H3122": {"test_system": "NCI-H3122", "in_short": "as §1"}, "NCI-H596": {"test_system": "NCI-H596", "in_short": "as §1"}, "NCI-H727": {"test_system": "NCI-H727", "in_short": "as §1"}, "PC-3 [JPC-3]": {"test_system": "PC-3 [JPC-3]", "in_short": "as §1"}, "SK-LU-1": {"test_system": "SK-LU-1", "in_short": "as §1"}, "SK-MES-1": {"test_system": "SK-MES-1", "in_short": "as §1"}, "SW 1573": {"test_system": "SW 1573", "in_short": "as §1"}},
  "data": [
    {"smiles": "O=C(O)c1ccc(-c2c[nH]c3ncc(-c4ccccc4)cc23)cc1C1CCCC1", "note": "+ C[C@]1(O)C[C@@H](c2nc(-c3ccc4ccc(-c5ccccc5)nc4c3)c3c(N)nccn32)C1 [Linsitinib] (partner 1 µM)", "values": [
      {"measurement": "relative viability", "setting": "A-427; first compound 0.04 µM", "value": 1.14},
      {"measurement": "relative viability", "setting": "A-427; first compound 0.1265 µM", "value": 1.1},
      {"measurement": "relative viability", "setting": "A-427; first compound 0.4 µM", "value": 1.05},
      {"measurement": "relative viability", "setting": "A-427; first compound 1.265 µM", "value": 0.865},
      {"measurement": "relative viability", "setting": "ABC-1; first compound 0.04 µM", "value": 0.753},
      {"measurement": "relative viability", "setting": "ABC-1; first compound 0.1265 µM", "value": 0.808},
      {"measurement": "relative viability", "setting": "ABC-1; first compound 0.4 µM", "value": 0.962},
      {"measurement": "relative viability", "setting": "ABC-1; first compound 1.265 µM", "value": 0.716},
      {"measurement": "relative viability", "setting": "COR-L23; first compound 0.04 µM", "value": 0.866},
      {"measurement": "relative viability", "setting": "COR-L23; first compound 0.1265 µM", "value": 0.951},
      {"measurement": "relative viability", "setting": "COR-L23; first compound 0.4 µM", "value": 0.771},
      {"measurement": "relative viability", "setting": "COR-L23; first compound 1.265 µM", "value": 0.444},
      {"measurement": "relative viability", "setting": "EMC-BAC-2; first compound 0.04 µM", "value": 0.823},
      {"measurement": "relative viability", "setting": "EMC-BAC-2; first compound 0.1265 µM", "value": 0.866},
      {"measurement": "relative viability", "setting": "EMC-BAC-2; first compound 0.4 µM", "value": 0.819},
      {"measurement": "relative viability", "setting": "EMC-BAC-2; first compound 1.265 µM", "value": 0.79},
      {"measurement": "relative viability", "setting": "HARA; first compound 0.04 µM", "value": 0.905},
      {"measurement": "relative viability", "setting": "HARA; first compound 0.1265 µM", "value": 0.983},
      {"measurement": "relative viability", "setting": "HARA; first compound 0.4 µM", "value": 0.994},
      {"measurement": "relative viability", "setting": "HARA; first compound 1.265 µM", "value": 0.748},
      {"measurement": "relative viability", "setting": "HOP-62; first compound 0.04 µM", "value": 1.1},
      {"measurement": "relative viability", "setting": "HOP-62; first compound 0.1265 µM", "value": 1.03},
      {"measurement": "relative viability", "setting": "HOP-62; first compound 0.4 µM", "value": 1.04},
      {"measurement": "relative viability", "setting": "HOP-62; first compound 1.265 µM", "value": 0.794},
      {"measurement": "relative viability", "setting": "LK-2; first compound 0.04 µM", "value": 0.667},
      {"measurement": "relative viability", "setting": "LK-2; first compound 0.1265 µM", "value": 0.587},
      {"measurement": "relative viability", "setting": "LK-2; first compound 0.4 µM", "value": 0.549},
      {"measurement": "relative viability", "setting": "LK-2; first compound 1.265 µM", "value": 0.902},
      {"measurement": "relative viability", "setting": "LXF-289; first compound 0.04 µM", "value": 0.94},
      {"measurement": "relative viability", "setting": "LXF-289; first compound 0.1265 µM", "value": 0.937},
      {"measurement": "relative viability", "setting": "LXF-289; first compound 0.4 µM", "value": 0.706},
      {"measurement": "relative viability", "setting": "LXF-289; first compound 1.265 µM", "value": 0.322},
      {"measurement": "relative viability", "setting": "NCI-H1792; first compound 0.04 µM", "value": 0.577},
      {"measurement": "relative viability", "setting": "NCI-H1792; first compound 0.1265 µM", "value": 0.727},
      {"measurement": "relative viability", "setting": "NCI-H1792; first compound 0.4 µM", "value": 0.56},
      {"measurement": "relative viability", "setting": "NCI-H1792; first compound 1.265 µM", "value": 0.558},
      {"measurement": "relative viability", "setting": "NCI-H1793; first compound 0.04 µM", "value": 0.909},
      {"measurement": "relative viability", "setting": "NCI-H1793; first compound 0.1265 µM", "value": 0.986},
      {"measurement": "relative viability", "setting": "NCI-H1793; first compound 0.4 µM", "value": 1.09},
      {"measurement": "relative viability", "setting": "NCI-H1793; first compound 1.265 µM", "value": 0.889},
      {"measurement": "relative viability", "setting": "NCI-H1944; first compound 0.04 µM", "value": 1.18},
      {"measurement": "relative viability", "setting": "NCI-H1944; first compound 0.1265 µM", "value": 1.39},
      {"measurement": "relative viability", "setting": "NCI-H1944; first compound 0.4 µM", "value": 1.04},
      {"measurement": "relative viability", "setting": "NCI-H1944; first compound 1.265 µM", "value": 1.02},
      {"measurement": "relative viability", "setting": "NCI-H1993; first compound 0.04 µM", "value": 0.745},
      {"measurement": "relative viability", "setting": "NCI-H1993; first compound 0.4 µM", "value": 0.681},
      {"measurement": "relative viability", "setting": "NCI-H1993; first compound 1.265 µM", "value": 0.753},
      {"measurement": "relative viability", "setting": "NCI-H2009; first compound 0.04 µM", "value": 1.23},
      {"measurement": "relative viability", "setting": "NCI-H2009; first compound 0.1265 µM", "value": 1.21},
      {"measurement": "relative viability", "setting": "NCI-H2009; first compound 0.4 µM", "value": 1.15},
      {"measurement": "relative viability", "setting": "NCI-H2009; first compound 1.265 µM", "value": 1.08},
      {"measurement": "relative viability", "setting": "NCI-H2228; first compound 0.04 µM", "value": 0.726},
      {"measurement": "relative viability", "setting": "NCI-H2228; first compound 0.1265 µM", "value": 0.729},
      {"measurement": "relative viability", "setting": "NCI-H2228; first compound 0.4 µM", "value": 0.813},
      {"measurement": "relative viability", "setting": "NCI-H2228; first compound 1.265 µM", "value": 0.589},
      {"measurement": "relative viability", "setting": "NCI-H3122; first compound 0.04 µM", "value": 0.966},
      {"measurement": "relative viability", "setting": "NCI-H3122; first compound 0.1265 µM", "value": 1.02},
      {"measurement": "relative viability", "setting": "NCI-H3122; first compound 0.4 µM", "value": 0.942},
      {"measurement": "relative viability", "setting": "NCI-H3122; first compound 1.265 µM", "value": 0.838},
      {"measurement": "relative viability", "setting": "NCI-H596; first compound 0.04 µM", "value": 0.974},
      {"measurement": "relative viability", "setting": "NCI-H596; first compound 0.1265 µM", "value": 1.05},
      {"measurement": "relative viability", "setting": "NCI-H596; first compound 0.4 µM", "value": 1.19},
      {"measurement": "relative viability", "setting": "NCI-H596; first compound 1.265 µM", "value": 1.03},
      {"measurement": "relative viability", "setting": "NCI-H727; first compound 0.04 µM", "value": 0.381},
      {"measurement": "relative viability", "setting": "NCI-H727; first compound 0.1265 µM", "value": 0.361},
      {"measurement": "relative viability", "setting": "NCI-H727; first compound 0.4 µM", "value": 0.243},
      {"measurement": "relative viability", "setting": "NCI-H727; first compound 1.265 µM", "value": 0.294},
      {"measurement": "relative viability", "setting": "PC-3 [JPC-3]; first compound 0.04 µM", "value": 0.915},
      {"measurement": "relative viability", "setting": "PC-3 [JPC-3]; first compound 0.1265 µM", "value": 0.986},
      {"measurement": "relative viability", "setting": "PC-3 [JPC-3]; first compound 0.4 µM", "value": 0.943},
      {"measurement": "relative viability", "setting": "PC-3 [JPC-3]; first compound 1.265 µM", "value": 0.788},
      {"measurement": "relative viability", "setting": "SK-LU-1; first compound 0.04 µM", "value": 1.06},
      {"measurement": "relative viability", "setting": "SK-LU-1; first compound 0.1265 µM", "value": 1},
      {"measurement": "relative viability", "setting": "SK-LU-1; first compound 0.4 µM", "value": 0.943},
      {"measurement": "relative viability", "setting": "SK-LU-1; first compound 1.265 µM", "value": 0.851},
      {"measurement": "relative viability", "setting": "SK-MES-1; first compound 0.04 µM", "value": 1.18},
      {"measurement": "relative viability", "setting": "SK-MES-1; first compound 0.1265 µM", "value": 1.09},
      {"measurement": "relative viability", "setting": "SK-MES-1; first compound 0.4 µM", "value": 0.997},
      {"measurement": "relative viability", "setting": "SK-MES-1; first compound 1.265 µM", "value": 0.749},
      {"measurement": "relative viability", "setting": "SW 1573; first compound 0.04 µM", "value": 0.753},
      {"measurement": "relative viability", "setting": "SW 1573; first compound 0.1265 µM", "value": 0.763},
      {"measurement": "relative viability", "setting": "SW 1573; first compound 0.4 µM", "value": 0.882},
      {"measurement": "relative viability", "setting": "SW 1573; first compound 1.265 µM", "value": 0.569}
    ]}
  ]
}
